The text below walks through data of patent US5486597A, “Tetrapeptide derivatives and analogues” (James Black Foundation Limited, priority 1990, dated 1996).

Type in all cases: cell-based
The target of assay [1] is T1, cholecystokinin receptors (Cavia porcellus, UniProt Q63931).
T1 construct: Isolated, strip preparations were prepared from gall-bladders removed from male Dunkin-Hartley guinea-pigs; from tissue; host or cells: guinea-pig gall-bladder strips
T1 sequence (Q63931 1-430): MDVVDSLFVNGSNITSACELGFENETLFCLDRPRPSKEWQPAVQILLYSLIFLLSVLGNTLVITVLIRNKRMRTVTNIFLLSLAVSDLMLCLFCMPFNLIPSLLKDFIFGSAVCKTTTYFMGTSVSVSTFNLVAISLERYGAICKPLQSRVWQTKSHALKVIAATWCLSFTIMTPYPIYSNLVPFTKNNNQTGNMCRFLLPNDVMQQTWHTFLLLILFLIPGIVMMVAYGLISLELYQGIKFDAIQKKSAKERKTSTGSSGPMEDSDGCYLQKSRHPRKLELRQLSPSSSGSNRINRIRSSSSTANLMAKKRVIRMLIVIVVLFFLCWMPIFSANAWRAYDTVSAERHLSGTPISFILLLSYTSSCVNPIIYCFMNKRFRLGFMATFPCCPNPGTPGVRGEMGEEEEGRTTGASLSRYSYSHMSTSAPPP
Put plainly: CCK-antagonist activity in isolated guinea-pig gall-bladder strip preparations. To be noted: guinea-pig gall-bladder strips; CCK-8 as agonist; test compound incubated for 60 minutes; standard errors less than 5%. In a few lines:
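Male Dunkin-Hartley guinea-pig gall-bladder strips under 1 g isometric tension in Krebs (0.5 mM Ca²⁺), 37° C, 95% O2/5% CO2, stabilised 90 min. Cumulative CCK-8 concentration-effect curves without and with test compound (60 min preincubation); antagonism expressed as […] by modified competitive analysis.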

For assay [2], the target named is T2, gastrin receptor (Cavia porcellus, UniProt H0VZC5).
T2 construct: Strips of muscle (approximately 2.5 cm by 1 cm) are removed from the proximal area of the stomach; from tissue; host or cells: guinea-pig proximal stomach (fundus) muscle strips
T2 sequence (H0VZC5 1-426): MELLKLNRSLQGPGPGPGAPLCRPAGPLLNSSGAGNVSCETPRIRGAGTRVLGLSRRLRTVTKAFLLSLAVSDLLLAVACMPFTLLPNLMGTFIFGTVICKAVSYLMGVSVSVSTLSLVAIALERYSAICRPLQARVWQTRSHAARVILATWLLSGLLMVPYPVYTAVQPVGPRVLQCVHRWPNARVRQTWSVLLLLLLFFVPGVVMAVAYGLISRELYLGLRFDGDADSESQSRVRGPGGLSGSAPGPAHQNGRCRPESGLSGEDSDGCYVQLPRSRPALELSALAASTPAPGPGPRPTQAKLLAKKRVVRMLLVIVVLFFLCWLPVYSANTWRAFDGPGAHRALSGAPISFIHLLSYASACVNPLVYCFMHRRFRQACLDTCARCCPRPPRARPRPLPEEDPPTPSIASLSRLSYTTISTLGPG
Kind of assay: guinea-pig fundus assay for gastrin activity (stomach muscle strips). To be noted: 10^-8 M devazepide present, 60 minute equilibration, agonist e.g. pentagastrin, standard errors less than 5%. Summed up: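 Proximal stomach muscle strips from male Dunkin-Hartley guinea-pigs were mounted on isotonic transducers at 0.35 g in gassed Krebs containing 10^-8 M devazepide to block CCK receptors, with 10 mM KCl added. Test compounds were equilibrated 60 min before cumulative pentagastrin dose-response curves were run.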

Assay [3] addresses T3, gastrin receptor (Mus musculus, UniProt P56481).
T3 construct: assayed for gastrin activity using the mouse stomach assay; from tissue; host or cells: isolated mouse stomach
T3 sequence (P56481 1-453): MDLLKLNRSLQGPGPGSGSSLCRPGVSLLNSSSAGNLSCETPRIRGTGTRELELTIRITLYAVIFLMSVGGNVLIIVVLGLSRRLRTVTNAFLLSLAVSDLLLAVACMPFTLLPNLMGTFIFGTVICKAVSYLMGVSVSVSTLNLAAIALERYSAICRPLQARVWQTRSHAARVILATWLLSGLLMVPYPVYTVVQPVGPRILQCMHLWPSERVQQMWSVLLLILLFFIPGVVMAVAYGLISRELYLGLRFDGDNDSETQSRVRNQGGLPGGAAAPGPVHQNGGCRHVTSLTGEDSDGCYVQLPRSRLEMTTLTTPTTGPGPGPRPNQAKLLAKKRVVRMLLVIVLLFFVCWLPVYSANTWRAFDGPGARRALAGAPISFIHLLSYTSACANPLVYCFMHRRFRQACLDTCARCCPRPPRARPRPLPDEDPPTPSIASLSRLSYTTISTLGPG
Kind of assay: mouse stomach assay for gastrin activity (isolated stomach, acid secretion). To be noted: for pKB mouse stomach: isolated mouse stomach assay, gastrin antagonism, standard errors less than 5%; for Acid seretion at 10^-5 M test compound, relative to pentagastrin (%): mouse stomach, NS = not significant. Here is the method: The compounds were assayed for gastrin activity using the mouse stomach assay as described by Black, J. W. and Shankley, N. P., Br. J. Pharmacol., 86, 571-579, (1985), and also in the guinea-pig fundus assay, as follows: […]

Take `CC(C)(C)OC(=O)N[C@@H](Cc1c[nH]c2ccccc12)C(=O)N[C@@H](Cc1ccc2ccccc2c1)C(=O)N[C@@H](CC(=O)O)C(=O)NCCc1ccc(N)cc1` [Example 46, N-t-Butyloxycarbonyl-L-tryptophyl-L-3-(2-naphthyl)alanyl-L-aspartyl-4-aminophenethylamide]: the pKB (in general, the KB on a negative log10 scale, so that one unit is a factor of ten) in assay [1] is 6.5; at gastrin receptor [2], 6.0. At gastrin receptor [3], this molecule returned a pKB mouse stomach of 5.6.

`CC(C)(C)OC(=O)N[C@@H](Cc1c[nH]c2ccccc12)C(=O)N[C@@H](Cc1ccc2ccccc2c1)C(=O)N[C@@H](CC(=O)O)C(=O)NCCc1ccc(F)cc1` [Example 47, N-t-Butyloxycarbonyl-L-tryptophyl-L-3-(2-naphthyl)alanyl-L-aspartyl-4-fluorophenethylamide]: in assay [1], the negative-log KB (pKB) is 6.7. At gastrin receptor [2], this molecule showed a negative logarithm of the KB (pKB) of 5.8. For the same molecule, on gastrin receptor [3], the pKB mouse stomach is recorded as 5.5 and the “Acid seretion at 10^-5 M test compound, relative to pentagastrin (%)” value (“Acid seretion … relative to pentagastrin (%)” for short) came to 25%.

On to `CC(C)(C)OC(=O)N[C@@H](Cc1c[nH]c2ccccc12)C(=O)N[C@@H](Cc1ccc2ccccc2c1)C(=O)N[C@H](CC(=O)O)C(=O)NCCc1ccc(F)cc1` [Example 52, N-t-Butyloxycarbonyl-L-tryptophyl-L-3-(2-naphthyl)alanyl-D-aspartyl-4-fluorophenethylamide], for which the pKB in assay [1] was found to be 6.4; at gastrin receptor [2] it was 5.9. At gastrin receptor [3], this molecule gave a pKB mouse stomach of 5.6. For the same molecule, the “Acid seretion … relative to pentagastrin (%)” value at gastrin receptor [3] is listed as 25%.

The molecule `CC(C)(C)OC(=O)N[C@@H](Cc1c[nH]c2ccccc12)C(=O)N[C@@H](Cc1ccc2ccccc2c1)C(=O)N[C@@H](CC(=O)O)C(=O)NCCc1ccccc1F` [Example 54, N-t-Butyloxycarbonyl-L-tryptophyl-L-3-(2-naphthyl)alanyl-L-aspartyl-2-fluorophenethylamide] registered a pKB in assay [1] of 6.4. In addition, at gastrin receptor [2], the pKB was found to be 6.2. Also, at gastrin receptor [3], the pKB mouse stomach stood at 5.4 and the “Acid seretion … relative to pentagastrin (%)” value is listed as 25%.

As to `COc1cccc(CCNC(=O)[C@H](CC(=O)O)NC(=O)[C@H](Cc2ccc3ccccc3c2)NC(=O)[C@H](Cc2c[nH]c3ccccc23)NC(=O)OC(C)(C)C)c1` [Example 56, N-t-Butyloxycarbonyl-L-tryptophyl-L-3-(2-naphthyl)alanyl-L-aspartyl-3-methoxyphenethylamide], the pKB in assay [1] was 7.2; at gastrin receptor [2], 5.5. For the same molecule, at gastrin receptor [3], the pKB mouse stomach is reported as 5.6.

`CC(C)(C)OC(=O)N[C@@H](Cc1c[nH]c2ccccc12)C(=O)N[C@@H](Cc1ccc2ccccc2c1)C(=O)N[C@@H](CC(=O)O)C(=O)NCCc1cccc(F)c1` [Example 65, N-t-Butyloxycarbonyl-L-tryptophyl-L-3-(2-naphthyl)alanyl-L-aspartyl-3-fluorophenethylamide]: the pKB in assay [1] is 6.7; on gastrin receptor [2], 6.1. At gastrin receptor [3], this molecule displayed a pKB mouse stomach of 5.3.

Consider “N-t-Butyloxycarbonyl-L-tryptophyl-L-3-(2-naphthyl)alanyl-L-aspartylphenethylamide [Example 2]”, for which the results for the pKB (in assay [1]; on gastrin receptor [2]) were 6.9 and 5.9, respectively. This molecule also came in with a pKB mouse stomach at gastrin receptor [3] of 5.6. Further, the “Acid seretion … relative to pentagastrin (%)” value at gastrin receptor [3] is on record as 20%.
